Experiment: mean ionic activity coefficient (dimensionless); mn = molality of the nth substance listed, in mol/kg
Settings: 298.15 K, 101 kPa, Liquid

[Br-].[Cs+] [cesium bromide] + O
Settings	mean ionic activity coefficient
m1 = 0.1	0.75
m1 = 0.2	0.689
m1 = 0.3	0.652
m1 = 0.4	0.625
m1 = 0.5	0.604
m1 = 0.6	0.587
m1 = 0.7	0.573
m1 = 0.8	0.561
m1 = 0.9	0.551
m1 = 1	0.542
m1 = 1.2	0.526
m1 = 1.4	0.514
m1 = 1.6	0.504
m1 = 1.8	0.495
m1 = 2	0.488
m1 = 2.5	0.475
m1 = 3	0.466
m1 = 3.5	0.461
m1 = 4	0.46
m1 = 4.5	0.46
m1 = 5	0.463

Reference: the NIST ThermoML archive (doi:10.1021/je9007662)
